Laboratory results from patent publication US10030016B2 (Sunesis Pharmaceuticals, Inc., priority 2009, dated 2018).
Structures can show the parent of a compound that is named as a salt. Where two headings read alike, the source gives them in different places.

Experiments:
PDK1 = PDK1 (Homo sapiens (Human), UniProt O15530); assay: PDK1 kinase assay (coupled PDK1/AKT/FAM-crosstide assay, IMAP fluorescence polarization); format: biochemical; conditions: inhibition of phospo-PDK1 in vitro
In short: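 Coupled cascade: 0.75 nM PDK1 (51-359) → 10 nM AKT2 (140-467-PIFtide) → 100 nM FAM-crosstide. ATP 40 μM, 25° C, 30 min. IMAP FP (ex 485/em 530), 2 h binding. ΔmP vs conc, 4-param fit.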

[1] = test system: phospho-akt (Thr308) in PC-3 cells; assay: Inhibition of phospho-akt (Thr308) in PC-3 cells, MSD phospho-akt 308 ELISA kit; format: cell-based; conditions: Homo sapiens, inhibition of P308 Akt in PC-3 cells, 2 hours, no serum, MSD, read-out: EC50
In short: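 PC-3 cells were seeded overnight in growth medium with 10% FBS, then exposed to compound serially diluted threefold in serum-free medium for 2 hours. Lysates were captured overnight at 4 degrees on MSD plates and phospho-Akt Thr308 was detected electrochemiluminescently, against DMSO high and 5 μM wortmannin low controls.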

PDK1, sequence (O15530 51-359): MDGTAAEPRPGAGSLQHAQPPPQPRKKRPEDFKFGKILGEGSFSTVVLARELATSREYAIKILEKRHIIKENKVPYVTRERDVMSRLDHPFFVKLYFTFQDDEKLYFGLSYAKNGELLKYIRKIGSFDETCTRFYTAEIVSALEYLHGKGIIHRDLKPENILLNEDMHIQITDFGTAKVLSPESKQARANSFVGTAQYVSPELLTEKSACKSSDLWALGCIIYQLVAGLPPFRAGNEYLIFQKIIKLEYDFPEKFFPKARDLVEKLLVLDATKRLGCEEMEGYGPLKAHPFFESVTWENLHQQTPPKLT

Structure (SMILES) | IC50 (PDK1) | EC50 [1] | EC50 ([1]; PC-3, 2 h)
CC[C@H](NC(=O)c1cccnc1NCc1ccc(-c2ccc3ncnc(N)c3c2)s1)c1cccc(F)c1 [Example 3.42, (S)-2-((5-(4-aminoquinazolin-6-yl)thiophen-2-yl)methylamino)-N-(1-(3-fluorophenyl)propyl) nicotinamide (TFA salt)] | 100 to 1000 nM | > 10000 nM | 
CC[C@H](NC(=O)c1cccnc1NCc1ccc(-c2ccc3ncnc(N)c3c2)s1)c1ccc(F)cc1 [Example 3.43, (S)-2-((5-(4-aminoquinazolin-6-yl)thiophen-2-yl)methylamino)-N-(1-(4-fluorophenyl)propyl) nicotinamide (TFA salt)] | 100 to 1000 nM | 1000 to 10000 nM | 
CC(C)[C@H](NC(=O)c1cccnc1NCc1ccc(-c2ccc3ncnc(N)c3c2)s1)c1cccc(F)c1 [Example 3.44, (S)-2-((5-(4-aminoquinazolin-6-yl)thiophen-2-yl)methylamino)-N-(1-(3-fluorophenyl)-2-methylpropyl)nicotinamide (TFA salt)] | 100 to 1000 nM | 1000 to 10000 nM | 
CC(C)[C@H](NC(=O)c1cccnc1NCc1ccc(-c2ccc3ncnc(N)c3c2)s1)c1ccc(F)cc1 [Example 3.45, (S)-2-((5-(4-aminoquinazolin-6-yl)thiophen-2-yl)methylamino)-N-(1-(4-fluorophenyl)-2-methylpropyl)nicotinamide (TFA salt)] | 100 to 1000 nM | 1000 to 10000 nM | 
Nc1ncnc2ccc(-c3ccc(CNc4ncccc4C(=O)Nc4cccc(F)c4)s3)cc12 [Example 3.46, 2-({[5-(4-aminoquinazolin-6-yl)thiophen-2-yl]methyl}amino)-N-(3-fluorophenyl)pyridine-3-carboxamide (TFA salt)] | 100 to 1000 nM | 1000 to 10000 nM | 
Nc1ncnc2ccc(-c3ccc(CNc4ncccc4C(=O)Nc4ccc(F)cc4)s3)cc12 [Example 3.47, 2-({[5-(4-aminoquinazolin-6-yl)thiophen-2-yl]methyl}amino)-N-(4-fluorophenyl)pyridine-3-carboxamide (TFA salt)] | 100 to 1000 nM | < 1000 nM | 
Nc1ncnc2ccc(-c3ccc(CNc4ncccc4C(=O)Nc4ccc(Cl)cc4)s3)cc12 [Example 3.48, 2-({[5-(4-aminoquinazolin-6-yl)thiophen-2-yl]methyl}amino)-N-(4-chlorophenyl)pyridine-3-carboxamide (TFA salt)] | 100 to 1000 nM | > 10000 nM | 
Nc1ncnc2ccc(-c3ccc(CNc4ncccc4C(=O)Nc4ccc(F)c(Cl)c4)s3)cc12 [Example 3.49, 2-({[5-(4-aminoquinazolin-6-yl)thiophen-2-yl]methyl}amino)-N-(3-chloro-4-fluorophenyl) pyridine-3-carboxamide (TFA salt)] | 100 to 1000 nM | 1000 to 10000 nM | 
Nc1ncnc2ccc(-c3ccc(CNc4ncccc4C(=O)Nc4ccc(F)c(C(F)(F)F)c4)s3)cc12 [Example 3.51, 2-({[5-(4-aminoquinazolin-6-yl)thiophen-2-yl]methyl}amino)-N-[4-fluoro-3-(trifluoromethyl)phenyl]pyridine-3-carboxamide (TFA salt)] | 1000 to 5000 nM | 1000 to 10000 nM | 
COc1cc(NC(=O)c2cccnc2NCc2ccc(-c3ccc4ncnc(N)c4c3)s2)cc(C(F)(F)F)c1 [Example 3.52, 2-({[5-(4-aminoquinazolin-6-yl)thiophen-2-yl]methyl}amino)-N-[3-methoxy-5-(trifluoromethyl)phenyl]pyridine-3-carboxamide (TFA salt)] | > 5000 nM | > 10000 nM | 
Nc1ncnc2ccc(-c3ccc(CNc4ncccc4C(=O)Nc4cccc(C(F)(F)F)c4)s3)cc12 [Example 3.53, 2-({[5-(4-aminoquinazolin-6-yl)thiophen-2-yl]methyl}amino)-N-[3-(trifluoromethyl)phenyl]pyridine-3-carboxamide (TFA salt)] | > 5000 nM | > 10000 nM | 
Nc1ncnc2ccc(-c3ccc(CNc4ncccc4C(=O)Nc4ccc(Cl)c(F)c4)s3)cc12 [Example 3.55, 2-({[5-(4-aminoquinazolin-6-yl)thiophen-2-yl]methyl}amino)-N-(4-chloro-3-fluorophenyl) pyridine-3-carboxamide (TFA salt)] | 100 to 1000 nM | > 10000 nM | 
Nc1ncnc2ccc(-c3ccc(CNc4ncccc4C(=O)NCc4ccccc4)s3)cc12 [Example 3.56, 2-({[5-(4-aminoquinazolin-6-yl)thiophen-2-yl]methyl}amino)-N-benzylpyridine-3-carboxamide (TFA salt)] | 100 to 1000 nM | 1000 to 10000 nM | 

The remaining lines, values ahead:

IC50 (PDK1) | EC50 [1] | EC50 ([1]; PC-3, 2 h) | Structure (SMILES)
1000 to 5000 nM | 1000 to 10000 nM |  | Nc1ncnc2ccc(-c3ccc(CNc4ncccc4C(=O)NCc4cncnc4)s3)cc12 [Example 3.57, 2-({[5-(4-aminoquinazolin-6-yl)thiophen-2-yl]methyl}amino)-N-(pyrimidin-5-ylmethyl) pyridine-3-carboxamide (TFA salt)]
100 to 1000 nM |  | 1000 to 10000 nM | C[C@H](NC(=O)c1cccnc1NCc1ccc(-c2ccc3ncnc(N)c3c2)s1)c1ccccn1 [Example 3.58, (S)-2-(((5-(4-aminoquinazolin-6-yl)thiophen-2-yl)methyl)amino)-N-(1-(pyridin-2-yl)ethyl) nicotinamide (TFA salt)]
< 100 nM | 1000 to 10000 nM |  | C[C@H](NC(=O)c1cccnc1NCc1ccc(-c2ccc3ncnc(N)c3c2)s1)c1cncc(F)c1 [Example 3.59, (S)-2-(((5-(4-aminoquinazolin-6-yl)thiophen-2-yl)methyl)amino)-N-(1-(5-(fluoropyridin-3-yl)ethyl)nicotinamide (TFA salt)]
100 to 1000 nM | 1000 to 10000 nM |  | C[C@H](NC(=O)c1cccnc1NCc1ccc(-c2ccc3ncnc(N)c3c2)s1)c1cccnc1 [Example 3.60, (S)-2-(((5-(4-aminoquinazolin-6-yl)thiophen-2-yl)methyl)amino)-N-(1-(pyridin-3-yl)ethyl) nicotinamide (TFA salt)]
100 to 1000 nM | > 10000 nM |  | C[C@H](NC(=O)c1cccnc1NCc1ccc(-c2ccc3ncnc(N)c3c2)s1)c1ccc(F)cc1F [Example 3.61, (S)-2-(((5-(4-aminoquinazolin-6-yl)thiophen-2-yl)methyl)amino)-N-(1-(2,4-difluorophenyl)ethyl) nicotinamide (TFA salt)]
< 100 nM | 1000 to 10000 nM |  | C[C@H](NC(=O)c1cccnc1NCc1ccc(-c2ccc3ncnc(N)c3c2)s1)c1cc(F)cc(F)c1 [Example 3.62, (S)-2-(((5-(4-aminoquinazolin-6-yl)thiophen-2-yl)methyl)amino)-N-(1-(3,5-difluorophenyl)ethyl) nicotinamide (TFA salt)]
< 100 nM | < 1000 nM |  | C[C@H](NC(=O)c1cccnc1NCc1ccc(-c2ccc3ncnc(N)c3c2)s1)c1cc(F)c(F)c(F)c1 [Example 3.63, (S)-2-(((5-(4-aminoquinazolin-6-yl)thiophen-2-yl)methyl)amino)-N-(1-(3,4,5-trifluorophenyl)ethyl) nicotinamide (TFA salt)]
> 5000 nM | 1000 to 10000 nM |  | Nc1ncnc2ccc(-c3ccc(CNc4ncccc4C(=O)N(Cc4cncc(F)c4)Cc4cncc(F)c4)s3)cc12 [Example 3.64, 2-(((5-(4-aminoquinazolin-6-yl)thiophen-2-yl)methyl)amino)-N,N-bis((5-fluoropyridin-3-yl)methyl)nicotinamide (TFA salt)]
100 to 1000 nM | 1000 to 10000 nM |  | C[C@H](NC(=O)c1cccnc1NCc1ccc(-c2ccc3ncnc(N)c3c2)s1)c1ccc(F)cn1 [Example 3.66, 2-({[5-(4-aminoquinazolin-6-yl)thiophen-2-yl]methyl}amino)-N-[(1S)-1-(5-fluoropyridin-2-yl)ethyl] pyridine-3-carboxamide (TFA salt)]
1000 to 5000 nM |  | > 10000 nM | Cc1ncc(CNC(=O)c2cccnc2NCc2ccc(-c3ccc4ncnc(N)c4c3)s2)cc1F [Example 3.67, 2-(((5-(4-aminoquinazolin-6-yl)thiophen-2-yl)methyl)amino)-N-((5-fluoro-6-methylpyridin-3-yl)methyl)nicotinamide (TFA salt)]
< 100 nM | 1000 to 10000 nM |  | Nc1ncnc2ccc(-c3ccc(CNc4nccnc4C(=O)NCc4ccc(F)cc4)s3)cc12 [Example 3.68, 3-({[5-(4-aminoquinazolin-6-yl)thiophen-2-yl]methyl}amino)-N-(4-fluorobenzyl) pyrazine-2-carboxamide (TFA salt)]
< 100 nM | 1000 to 10000 nM |  | C[C@H](NC(=O)c1nccnc1NCc1ccc(-c2ccc3ncnc(N)c3c2)s1)c1cccc(F)c1 [Example 3.69, 3-({[5-(4-aminoquinazolin-6-yl)thiophen-2-yl]methyl}amino)-N-[(1S)-1-(3-fluorophenyl)ethyl] pyrazine-2-carboxamide (TFA salt)]
< 100 nM | 1000 to 10000 nM |  | C[C@H](NC(=O)c1nccnc1NCc1ccc(-c2ccc3ncnc(N)c3c2)s1)c1ccc(F)cc1 [Example 3.70, 3-({[5-(4-aminoquinazolin-6-yl)thiophen-2-yl]methyl}amino)-N-[(1S)-1-(4-fluorophenyl)ethyl] pyrazine-2-carboxamide (TFA salt)]
< 100 nM | < 1000 nM |  | Nc1ncnc2ccc(-c3ccc(CNc4nccnc4C(=O)NCc4cc(F)c(F)c(F)c4)s3)cc12 [Example 3.71, 3-({[5-(4-aminoquinazolin-6-yl)thiophen-2-yl]methyl}amino)-N-(3,4,5-trifluorobenzyl)pyrazine-2-carboxamide (TFA salt)]
